Test [1] has as its system MOLM-13 cells. The experiment in a line: MOLM-13 Cellular Assay. As to conditions: Homo sapiens, 72 hours exposure, cell viability by CellTiter-Glo. The format is cell-based. As for the experimental part: The day prior to assay set-up, cells were pelleted, resuspended in fresh media, counted, and cells were plated at 0.4×10^6 cell/mL in a T150 flask. […] Cells were exposed to different concentrations of test compounds at 37° C., 5% CO2 for 72 hours immediately after seeding.

For test [2], the target named is T1, human DHODH (Homo sapiens, UniProt Q02127).
T1 construct: purchased Proteros PR-0044
T1 sequence (Q02127 whole entry): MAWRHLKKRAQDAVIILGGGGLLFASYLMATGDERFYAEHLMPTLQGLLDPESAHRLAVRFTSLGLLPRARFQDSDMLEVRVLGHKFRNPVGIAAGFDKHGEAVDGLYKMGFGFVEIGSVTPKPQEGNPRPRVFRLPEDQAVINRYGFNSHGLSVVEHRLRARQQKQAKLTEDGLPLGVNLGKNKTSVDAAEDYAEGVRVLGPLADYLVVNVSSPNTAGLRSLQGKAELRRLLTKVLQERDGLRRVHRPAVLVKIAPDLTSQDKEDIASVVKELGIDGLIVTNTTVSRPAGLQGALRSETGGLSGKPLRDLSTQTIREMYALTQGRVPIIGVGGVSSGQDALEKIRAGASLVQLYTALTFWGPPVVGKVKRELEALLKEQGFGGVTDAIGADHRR
The experiment in a line: DHODH Enzymatic Assay. The format is biochemical. Conditions: purified human DHODH; DCIP absorbance, end-point mode. The procedure, abridged:
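Purified human DHODH activity read as absorbance of DCIP, the terminal electron acceptor, in […] pH 7.5, 150 mM NaCl, 0.5 mM EDTA, 0.1% Triton X-100. Reaction started with a substrate mix of 20 mM DHO, 5 mM CoQ6 and 1 mM DCIP in assay buffer.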

Molecules are shown by their SMILES.

As to `CCn1c(CO)nn(-c2nc(O[C@@H](C)C(F)(F)F)c(C(=O)Nc3cccnc3Cl)cc2F)c1=O` [Example 4, (S)-N-(2-Chloropyridin-3-yl)-6-(4-ethyl-3-(hydroxymethyl)-5-oxo-4,5-dihydro-1H-1,2,4-triazol-1-yl)-5-fluoro-2-((1,1,1-trifluoropropan-2-yl)oxy)nicotinamide], the concentration giving a half-maximal response (EC50) in test [1] was 6.5 nM; in test [2], 2.8 nM.
Consider `CCn1c(CO)nn(-c2nc(O[C@@H](C)C(F)(F)F)c(C(=O)Nc3c(OC)n[nH]c3C)cc2F)c1=O` [Example 121, 6-[4-Ethyl-3-(hydroxymethyl)-5-oxo-1,2,4-triazol-1-yl]-5-fluoro-N-(3-methoxy-5-methyl-1H-pyrazol-4-yl)-2-[(1S)-2,2,2-trifluoro-1-methyl-ethoxy]pyridine-3-carboxamide], for which the 50% effective concentration (EC50) was found to be 2.47 nM in test [1] and 23 nM in test [2].
For the molecule `CCn1c(CO)nn(-c2nc(O[C@@H](C)C(F)(F)F)c(C(=O)Nc3c(Cl)ccnc3C)cc2F)c1=O` [Example 79, N-(4-Chloro-2-methyl-3-pyridyl)-6-[4-ethyl-3-(hydroxymethyl)-5-oxo-1,2,4-triazol-1-yl]-5-fluoro-2-[(1S)-2,2,2-trifluoro-1-methyl-ethoxy]pyridine-3-carboxamide], the EC50 in test [1] stood at 5.3 nM; in test [2] it was 1.9 nM.
For `CCn1c(CF)nn(-c2nc(OC(C)C)c(C(=O)Nc3c(C)ccnc3Cl)cc2F)c1=O` [Example 97, N-(2-Chloro-4-methyl-3-pyridyl)-6-[4-ethyl-3-(fluoromethyl)-5-oxo-1,2,4-triazol-1-yl]-5-fluoro-2-isopropoxy-pyridine-3-carboxamide] the same measures were 1.06 nM and 1.15 nM.
Regarding `CCn1c(CO)nn(-c2nc(O[C@@H](C)C(F)(F)F)c(C(=O)Nc3nc(C)ccc3F)cc2F)c1=O` [Example 39, (S)-6-(4-Ethyl-3-(hydroxymethyl)-5-oxo-4,5-dihydro-1H-1,2,4-triazol-1-yl)-5-fluoro-N-(3-fluoro-6-methylpyridin-2-yl)-2-((1,1,1-trifluoropropan-2-yl)oxy)nicotinamide], the EC50 in test [1] was found to be 16.5 nM; in test [2] it was 14.1 nM.
The matching figures for `CCn1c(CO)nn(-c2nc(O[C@@H](C)C(F)(F)F)c(C(=O)Nc3cnsc3Br)cc2F)c1=O` [Example 15, (S)-N-(5-Bromoisothiazol-4-yl)-6-(4-ethyl-3-(hydroxymethyl)-5-oxo-4,5-dihydro-1H-1,2,4-triazol-1-yl)-5-fluoro-2-((1,1,1-trifluoropropan-2-yl)oxy)nicotinamide]: 2.5 nM and 3.1 nM.
As to `CCn1c(CO)nn(-c2nc(O[C@@H](C)C(F)(F)F)c(C(=O)Nc3c(OC)ccnc3OC)cc2F)c1=O` [Example 93, N-(2,4-Dimethoxy-3-pyridyl)-6-[4-ethyl-3-(hydroxymethyl)-5-oxo-1,2,4-triazol-1-yl]-5-fluoro-2-[(1S)-2,2,2-trifluoro-1-methyl-ethoxy]pyridine-3-carboxamide], the half-maximal effective concentration (EC50) in test [1] was found to be 4.14 nM; in test [2], 13.8 nM.
Turning to `CCCn1c(CF)nn(-c2nc(O[C@@H](C)C(F)(F)F)c(C(=O)Nc3c(C)ccnc3Cl)cc2F)c1=O` [Example 92, N-(2-Chloro-4-methyl-3-pyridyl)-5-fluoro-6-[3-(fluoromethyl)-5-oxo-4-propyl-1,2,4-triazol-1-yl]-2-[(1S)-2,2,2-trifluoro-1-methyl-ethoxy]pyridine-3-carboxamide], the half-maximal effective concentration (EC50) in test [1] was determined as 0.435 nM; in test [2] it was 0.639 nM.
For `CCn1c(CO)nn(-c2nc(O[C@@H](C)C(F)(F)F)c(C(=O)Nc3c(C)ccnc3Cl)cc2F)c1=O` [Example 5, (S)-N-(2-Chloro-4-methylpyridin-3-yl)-6-(4-ethyl-3-(hydroxymethyl)-5-oxo-4,5-dihydro-1H-1,2,4-triazol-1-yl)-5-fluoro-2-((1,1,1-trifluoropropan-2-yl)oxy)nicotinamide] the same measures were 2 nM and 1.2 nM.
For `CCn1c(CO)nn(-c2nc(O[C@@H](C)C(F)(F)F)c(C(=O)Nc3c(C)ccnc3OC)cc2F)c1=O` [Example 68, (S)-6-(4-Ethyl-3-(hydroxymethyl)-5-oxo-4,5-dihydro-1H-1,2,4-triazol-1-yl)-5-fluoro-N-(2-methoxy-4-methylpyridin-3-yl)-2-((1,1,1-trifluoropropan-2-yl)oxy)nicotinamide] the same measures were 0.886 nM and 0.87 nM.
For `CCn1c(CO)nn(-c2nc(O[C@@H](C)C(F)(F)F)c(C(=O)Nc3c(Cl)ccc(C)c3C)cc2F)c1=O` [Example 83, N-(6-Chloro-2,3-dimethyl-phenyl)-6-[4-ethyl-3-(hydroxymethyl)-5-oxo-1,2,4-triazol-1-yl]-5-fluoro-2-[(1S)-2,2,2-trifluoro-1-methyl-ethoxy]pyridine-3-carboxamide] the same measures were 0.73 nM and 0.69 nM.
Take `CCn1c(CO)nn(-c2nc(O[C@@H](C)C(F)(F)F)c(C(=O)Nc3c(OC)cc(C)nc3C)cc2F)c1=O` [Example 103, 6-[4-ethyl-3-(hydroxymethyl)-5-oxo-1,2,4-triazol-1-yl]-5-fluoro-N-(4-methoxy-2,6-dimethyl-3-pyridyl)-2-[(1S)-2,2,2-trifluoro-1-methyl-ethoxy]pyridine-3-carboxamide]: the concentration giving a half-maximal response (EC50) in test [1] was 17.3 nM; in test [2], over 100 nM.
The matching figures for `CCn1c(CO)nn(-c2nc(O[C@@H](C)C(F)(F)F)c(C(=O)Nc3c(C)cc(C)nc3OC)cc2F)c1=O` [Example 114, 6-[4-Ethyl-3-(hydroxymethyl)-5-oxo-1,2,4-triazol-1-yl]-5-fluoro-N-(2-methoxy-4,6-dimethyl-3-pyridyl)-2-[(1S)-2,2,2-trifluoro-1-methyl-ethoxy]pyridine-3-carboxamide]: 0.368 nM and 0.415 nM.
Regarding `CCn1c(CO)nn(-c2nc(O[C@@H](C)C(F)(F)F)c(C(=O)Nc3cc(C)ccc3F)cc2F)c1=O` [Example 11, (S)-6-(4-Ethyl-3-(hydroxymethyl)-5-oxo-4,5-dihydro-1H-1,2,4-triazol-1-yl)-5-fluoro-N-(2-fluoro-5-methylphenyl)-2-((1,1,1-trifluoropropan-2-yl)oxy)nicotinamide], the concentration giving a half-maximal response (EC50) in test [1] was 0.5 nM; in test [2], under 1.69 nM.
For `CCn1c(CO)nn(-c2nc(O[C@@H](C)C(F)(F)F)c(C(=O)Nc3c[nH]nc3C3CC3)cc2F)c1=O` [Example 62, (S)-N-(3-Cyclopropyl-1H-pyrazol-4-yl)-6-(4-ethyl-3-(hydroxymethyl)-5-oxo-4,5-dihydro-1H-1,2,4-triazol-1-yl)-5-fluoro-2-((1,1,1-trifluoropropan-2-yl)oxy)nicotinamide] the same measures were 8.5 nM and 2.7 nM.
For `CCn1c(CO)nn(-c2nc(O[C@@H](C)C(F)(F)F)c(C(=O)Nc3ncnc(C)c3C)cc2F)c1=O` [Example 43, (S)-N-(5,6-Dimethylpyrimidin-4-yl)-6-(4-ethyl-3-(hydroxymethyl)-5-oxo-4,5-dihydro-1H-1,2,4-triazol-1-yl)-5-fluoro-2-((1,1,1-trifluoropropan-2-yl)oxy)nicotinamide] the same measures were over 100 nM and 815 nM.
For `Cc1ccnc(Cl)c1NC(=O)c1cc(F)c(-n2nc(CF)n(CCO)c2=O)nc1O[C@@H](C)C(F)(F)F` [Example 116, N-(2-Chloro-4-methyl-3-pyridyl)-5-fluoro-6-[3-(fluoromethyl)-4-(2-hydroxyethyl)-5-oxo-1,2,4-triazol-1-yl]-2-[(1S)-2,2,2-trifluoro-1-methyl-ethoxy]pyridine-3-carboxamide] the same measures were 7.23 nM and 20.5 nM.
On to `CCn1c(CO)nn(-c2nc(O[C@@H](C)C(F)(F)F)c(C(=O)Nc3ncnc(C)c3Cl)cc2F)c1=O` [Example 60, (S)-N-(5-Chloro-6-methylpyrimidin-4-yl)-6-(4-ethyl-3-(hydroxymethyl)-5-oxo-4,5-dihydro-1H-1,2,4-triazol-1-yl)-5-fluoro-2-((1,1,1-trifluoropropan-2-yl)oxy)nicotinamide], for which the EC50 in test [1] was over 100 nM; in test [2] it was 254 nM.
The matching figures for `CCn1c(CO)nn(-c2nc(O[C@@H](C)C(F)(F)F)c(C(=O)Nc3c(C)cnc(OC)c3Cl)cc2F)c1=O` [Example 40, (S)-N-(3-Chloro-2-methoxy-5-methylpyridin-4-yl)-6-(4-ethyl-3-(hydroxymethyl)-5-oxo-4,5-dihydro-1H-1,2,4-triazol-1-yl)-5-fluoro-2-((1,1,1-trifluoropropan-2-yl)oxy)nicotinamide]: 0.3 nM and 0.31 nM.
Take `CCn1c(CO)nn(-c2nc(O[C@@H](C)C(F)(F)F)c(C(=O)Nc3c(N(C)C)ccnc3OC)cc2F)c1=O` [Example 76, (S)-N-(4-(Dimethylamino)-2-methoxypyridin-3-yl)-6-(4-ethyl-3-(hydroxymethyl)-5-oxo-4,5-dihydro-1H-1,2,4-triazol-1-yl)-5-fluoro-2-((1,1,1-trifluoropropan-2-yl)oxy)nicotinamide]: the EC50 turned out to be 27.9 nM in test [1] and 3.6 nM in test [2].
The matching figures for `CCn1c(CO)nn(-c2nc(O[C@@H](C)C(F)(F)F)c(C(=O)Nc3c[nH]nc3OC)cc2F)c1=O` [Example 58, (S)-6-(4-Ethyl-3-(hydroxymethyl)-5-oxo-4,5-dihydro-1H-1,2,4-triazol-1-yl)-5-fluoro-N-(3-methoxy-1H-pyrazol-4-yl)-2-((1,1,1-trifluoropropan-2-yl)oxy)nicotinamide]: 23.2 nM and 5.8 nM.

(Values after patent publication US20220089568A1 (Janssen Biotech, Inc., priority 2019, published 2022).)
